According to patent publication EP4700120A1, “NOVEL P[…] DON-DEGRADING ACTIVITY” (CJ Cheiljedang Corporation, priority 2023, dated 2024):

System: IPEC-J2 cells
Assay: Cytotoxicity of DON degradation products, WST assay cell viability
Type: cell-based
Details: for Cell Viability (%): 24 hours
Method: A DMEM/F-12 medium supplemented with 10% FBS and 1% penicillin-streptomycin was added to a T75 flask, and the IPEC-J2 cell line was subcultured in the flask at 37°C and under 5% CO2. For cytotoxicity evaluation, the cultured cells were seeded in 96-well plates containing DMEM/F-12 with 10% FBS to 3×10^4 cells/100 µL, and the cells were incubated for 24 hour under the above conditions. Thereafter, the existing medium was removed, and the three samples in Table 4 were each applied to the cells so as to final concentrations of 2 µM, 1 µM, and 0.5 µM (based on the substrate concentration before the reaction), followed by additional incubation at 37°C in a CO2 incubator for 24 hours. After incubation, the existing substances were removed, and the cells were washed once with DMEM/F-12 and treated with a WST assay reagent (EZ-Cytox kit, DoGenBio) together with the medium. After 2 hours, absorbance at 450 nm was measured to determine cell viability of IPEC-J2 cells.

For `CC1=C[C@H]2O[C@@H]3[C@H](O)C[C@](C)([C@@]2(CO)[C@H](O)C1=O)[C@]31CO1` [DON Control, deoxynivalenol], the cell viability (IPEC-J2, 0.5 µM to 2 µM) was “approximately 65%”, the “Cell Viability (%)” value (IPEC-J2, sample concentration 0.5 µM (substrate concentration before the reaction)) was 79.0% and the “Cell Viability (%)” value (IPEC-J2, sample concentration 1 µM (substrate concentration before the reaction)) was 71.4%. The “Cell Viability (%)” value (IPEC-J2, sample concentration 2 µM (substrate concentration before the reaction)) was 64.6%.
